{
  "source": "patent US7999128B2",
  "about": "“Hydroxybenzophenone derivatives” (BASF SE, priority 2006, dated 2011)",
  "key": {"[1]": {"assay": "UV absorption (λmax, E 1/1)", "format": "physicochemical", "conditions": "for E 1/1: at λmax"}, "[2]": {"assay": "Solubility in Cyclomethicone", "format": "physicochemical", "conditions": "at RT"}},
  "data": [
    {"compound": "CCN(CC)c1ccc(C(=O)c2ccccc2C(=O)OCCC[Si](C)(C)C)c(O)c1", "note": "[Example A1]", "values": [
      {"measurement": "λmax", "setting": "[1]", "value": 350, "unit": "nm"},
      {"measurement": "E 1/1", "setting": "[1]", "value": 822},
      {"measurement": "solubility in Cyclomethicone", "setting": "[2]", "value": 1.8, "unit": "%"}
    ]},
    {"compound": "CCN(CC)c1ccc(C(=O)c2ccccc2C(=O)OCCOC(=O)C(C)C[Si](C)(O[Si](C)(C)C)O[Si](C)(C)C)c(O)c1", "note": "(centres unmarked) [Example A2]", "values": [
      {"measurement": "λmax", "setting": "[1]", "value": 350, "unit": "nm"},
      {"measurement": "E 1/1", "setting": "[1]", "value": 571},
      {"measurement": "solubility in Cyclomethicone", "setting": "[2]", "value": "> 20", "unit": "%"}
    ]},
    {"compound": "CCN(CC)c1ccc(C(=O)c2ccccc2C(=O)OCCOC(=O)C(C)C[Si](C)(O[Si](C)(C)C)O[Si](C)(C)C)c(O)c1", "note": "(centres unmarked) [Example A3]", "values": [
      {"measurement": "λmax", "setting": "[1]", "value": 357, "unit": "nm"},
      {"measurement": "E 1/1", "setting": "[1]", "value": 606}
    ]}
  ]
}
